In patent US20260216164A1, “INDOLE COMPOUND DECOMPOSING IKZF2, AND USE THEREOF” (KOREA RESEARCH INSTITUTE OF CHEMICAL TECHNOLOGY, priority 2023, published 2026):

Biological target: Helios (IKZF2) (Homo sapiens, UniProt Q96SW2+Q9UKS7)
Test: Screening of Helios protein degraders using Nano-Glo HiBiT cell line (HiBiT-IKZF2)
Type: cell-based
Conditions: 6 hours, HiBiT-Helios knock-in Jurkat cells; for remaining activity at 10 µM: compound 10 μM, read-out: HiBiT-IKZF2 Residual amount of Helios (%) 10 μM; for remaining activity at 1 µM: compound 1 μM, read-out: HiBiT-IKZF2 Residual amount of Helios (%) 1 μM
Procedure: To observe intracellular degradation of Helios, the Nano-Glo HiBiT detection system (Promega) was employed. […] The cells expressing Helios fused with HiBiT were validated using the Nano-Glo HiBiT detection system (Promega) according to a predetermined protocol, isolated as single cells, and cultured in complete medium to establish a monoclonal cell line.
After 6 hours, the Nano-Glo HiBiT detection reagent was added to each well in an equal volume to the cell culture medium and incubated at room temperature for 10 minutes. Following incubation, the HiBiT luminescence signal was measured using a microplate reader (Perkin Elmer).

Helios (IKZF2), sequence (Q9UKS7 whole entry): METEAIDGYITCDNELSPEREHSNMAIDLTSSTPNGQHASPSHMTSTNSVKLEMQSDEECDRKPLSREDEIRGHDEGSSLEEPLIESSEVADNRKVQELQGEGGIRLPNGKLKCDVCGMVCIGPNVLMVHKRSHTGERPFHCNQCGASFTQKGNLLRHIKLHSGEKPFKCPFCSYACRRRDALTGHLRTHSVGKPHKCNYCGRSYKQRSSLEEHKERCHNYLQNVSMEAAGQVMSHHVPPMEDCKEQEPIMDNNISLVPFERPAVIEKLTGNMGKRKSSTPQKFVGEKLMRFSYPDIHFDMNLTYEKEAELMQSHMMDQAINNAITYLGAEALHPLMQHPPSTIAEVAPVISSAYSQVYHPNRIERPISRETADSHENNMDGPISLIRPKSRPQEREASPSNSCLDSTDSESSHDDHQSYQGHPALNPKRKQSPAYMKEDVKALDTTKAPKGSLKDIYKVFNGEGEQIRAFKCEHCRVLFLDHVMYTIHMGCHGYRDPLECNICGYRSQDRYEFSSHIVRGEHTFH
Helios (IKZF2), sequence (Q96SW2 whole entry): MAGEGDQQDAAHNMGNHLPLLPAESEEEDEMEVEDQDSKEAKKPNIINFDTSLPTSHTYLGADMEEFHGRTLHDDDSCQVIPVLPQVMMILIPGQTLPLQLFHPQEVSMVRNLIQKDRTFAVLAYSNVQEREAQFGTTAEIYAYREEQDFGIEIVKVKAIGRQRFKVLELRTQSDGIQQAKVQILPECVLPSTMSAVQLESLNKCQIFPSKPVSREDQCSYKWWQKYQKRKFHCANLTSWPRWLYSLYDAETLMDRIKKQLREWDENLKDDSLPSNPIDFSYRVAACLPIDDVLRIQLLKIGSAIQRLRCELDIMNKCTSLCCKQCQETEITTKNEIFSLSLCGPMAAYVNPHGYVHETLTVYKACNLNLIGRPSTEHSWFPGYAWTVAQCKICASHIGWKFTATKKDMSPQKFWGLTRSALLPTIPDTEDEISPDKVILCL
Helios (IKZF2), sequence (Q16531 whole entry partner): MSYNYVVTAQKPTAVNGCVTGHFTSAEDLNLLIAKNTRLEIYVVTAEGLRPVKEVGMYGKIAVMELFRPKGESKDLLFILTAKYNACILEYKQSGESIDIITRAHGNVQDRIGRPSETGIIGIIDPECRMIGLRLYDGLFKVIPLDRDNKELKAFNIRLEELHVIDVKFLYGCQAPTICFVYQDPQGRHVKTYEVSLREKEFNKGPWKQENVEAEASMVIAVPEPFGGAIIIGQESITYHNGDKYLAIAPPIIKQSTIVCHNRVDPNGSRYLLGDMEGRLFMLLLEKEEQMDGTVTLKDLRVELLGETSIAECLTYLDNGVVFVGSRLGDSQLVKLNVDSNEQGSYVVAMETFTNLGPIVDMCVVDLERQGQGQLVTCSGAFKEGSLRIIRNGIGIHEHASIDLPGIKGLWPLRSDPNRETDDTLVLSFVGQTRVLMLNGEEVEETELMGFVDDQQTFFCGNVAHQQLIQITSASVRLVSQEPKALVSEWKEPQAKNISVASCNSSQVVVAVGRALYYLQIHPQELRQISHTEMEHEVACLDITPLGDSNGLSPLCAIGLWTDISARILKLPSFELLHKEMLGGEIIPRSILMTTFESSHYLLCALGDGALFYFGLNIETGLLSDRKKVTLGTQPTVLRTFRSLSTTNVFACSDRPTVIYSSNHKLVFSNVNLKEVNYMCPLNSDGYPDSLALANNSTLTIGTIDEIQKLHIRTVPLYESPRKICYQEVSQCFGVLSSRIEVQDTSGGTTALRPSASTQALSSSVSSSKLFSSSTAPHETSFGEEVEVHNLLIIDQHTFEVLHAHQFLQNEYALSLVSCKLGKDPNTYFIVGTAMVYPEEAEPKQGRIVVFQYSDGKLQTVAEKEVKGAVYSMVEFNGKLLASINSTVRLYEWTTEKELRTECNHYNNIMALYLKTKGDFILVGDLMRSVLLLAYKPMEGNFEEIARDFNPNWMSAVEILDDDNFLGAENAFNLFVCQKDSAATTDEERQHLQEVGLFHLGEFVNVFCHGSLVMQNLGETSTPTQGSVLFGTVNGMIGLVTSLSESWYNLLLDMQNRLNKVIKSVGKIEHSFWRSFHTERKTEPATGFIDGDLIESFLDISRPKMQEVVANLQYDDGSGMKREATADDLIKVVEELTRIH

Row | remaining activity at 10 µM | remaining activity at 1 µM | Structure (SMILES)
1 | 78.7% |  | Cc1c(C(=O)N2CCC(c3ccc4c(c3)CN(C3CCC(=O)NC3=O)C4=O)C2)[nH]c2cc(Cl)ccc12 (stereo not drawn) [Compound 67, 3-(5-(1-(6-chloro-3-methyl-1H-indole-2-carbonyl)pyrrolidin-3-yl)-1-oxoinsoindolin-2-yl)piperidine-2,6-dione]
2 | 91.7% | 96.4% | Cc1c(C(=O)N2CCC(=Cc3ccc4c(c3)CN(C3CCC(=O)NC3=O)C4=O)CC2)[nH]c2ccccc12 (stereo not drawn) [Compound 27, 3-(5-((1-(3-methyl-1H-indole-2-carbonyl)piperidin-4-ylidene)methyl)-1-oxoinsoindolin-2-yl)piperidine-2,6-dione]
3 | 97.3% | 94.6% | COc1ccc2[nH]c(C(=O)N3CCC(c4ccc5c(c4)CN(C4CCC(=O)NC4=O)C5=O)CC3)cc2c1 (stereo not drawn) [Compound 10, 3-(5-(1-(5-methoxy-1H-indole-2-carbonyl)piperidin-4-yl)-1-oxoinsoindolin-2-yl)piperidine-2,6-dione]
4 | 40% |  | O=C1CCC(N2Cc3cc(C4CCN(Cc5ccccc5)CC4)ccc3C2=O)C(=O)N1 (stereo not drawn) [Comparative Substance 1 (DKY709), reference compound]
5 | 49% |  | Cc1c(C(=O)N2CCC(c3ccc4c(c3)CN(C3CCC(=O)NC3=O)C4=O)CC2)[nH]c2cc(Cl)c(Br)cc12 (stereo not drawn) [Compound 83, 3-(5-(1-(5-bromo-6-chloro-3-methyl-1H-indole-2-carbonyl)piperidin-4-yl)-1-oxoinsoindolin-2-yl)piperidine-2,6-dione]
6 | 98.4% | 89% | Cc1cccc2[nH]c(C(=O)N3CCC(c4ccc5c(c4)CN(C4CCC(=O)NC4=O)C5=O)CC3)cc12 (stereo not drawn) [Compound 14, 3-(5-(1-(4-methyl-1H-indole-2-carbonyl)piperidin-4-yl)-1-oxoinsoindolin-2-yl)piperidine-2,6-dione]
7 | 40.6% | 50.9% | O=C1CCC(N2Cc3cc(C4CCN(C(=O)c5[nH]c6ccccc6c5Br)CC4)ccc3C2=O)C(=O)N1 (stereo not drawn) [Compound 36, 3-(5-(1-(3-bromo-1H-indole-2-carbonyl)piperidin-4-yl)-1-oxoinsoindolin-2-yl)piperidine-2,6-dione]
8 | 14.3% |  | Cc1c(C(=O)N2CCC(c3ccc4c(c3F)CN(C3CCC(=O)N(COC(=O)C(C)(C)C)C3=O)C4=O)CC2)[nH]c2cc(Cl)ccc12 (stereo not drawn) [Compound 123, (3-(5-(1-(6-chloro-3-methyl-1H-indole-2-carbonyl)piperidin-4-yl)-4-fluoro-1-oxoinsoindolin-2-yl)-2,6-dioxopiperidin-1-yl)methyl pivalate]
9 | 82.7% | 80.5% | O=C1CCC(N2Cc3cc(C4CCN(C(=O)c5cc6cccc(F)c6[nH]5)CC4)ccc3C2=O)C(=O)N1 (stereo not drawn) [Compound 19, 3-(5-(1-(7-fluoro-1H-indole-2-carbonyl)piperidin-4-yl)-1-oxoinsoindolin-2-yl)piperidine-2,6-dione]
10 | 99.6% | 101% | O=C1CCC(N2Cc3cc(C#CCC4CCN(C(=O)c5c[nH]c6ccccc56)CC4)ccc3C2=O)C(=O)N1 (stereo not drawn) [Compound 23, 3-(5-(3-(1-(1H-indole-3-carbonyl)piperidin-4-yl)prop-1-yn-1-yl)-1-oxoinsoindolin-2-yl)piperidine-2,6-dione]
11 | 64.4% | 71.3% | Cc1c(C(=O)N2CCC(c3ccc4c(c3)CN(C3CCC(=O)NC3=O)C4=O)CC2)[nH]c2ccc(Br)cc12 (stereo not drawn) [Compound 33, 3-(5-(1-(5-bromo-3-methyl-1H-indole-2-carbonyl)piperidin-4-yl)-1-oxoinsoindolin-2-yl)piperidine-2,6-dione]
12 | 109% | 99.5% | O=C1CCC(N2Cc3cc(C4CCN(C(=O)c5cc6cccc(Cl)c6[nH]5)CC4)ccc3C2=O)C(=O)N1 (stereo not drawn) [Compound 8, 3-(5-(1-(7-chloro-1H-indole-2-carbonyl)piperidin-4-yl)-1-oxoinsoindolin-2-yl)piperidine-2,6-dione]
13 | 8.5% | 15.2% | O=C1CCC(N2Cc3cc(C4CCN(C(=O)c5[nH]c6cc(Cl)ccc6c5CO)CC4)ccc3C2=O)C(=O)N1 (stereo not drawn) [Compound 105, 3-(5-(1-(6-chloro-3-(hydroxymethyl)-1H-indole-2-carbonyl)piperidin-4-yl)-1-oxoinsoindolin-2-yl)piperidine-2,6-dione]
14 | 11.2% |  | Cc1c(C(=O)N2CCC(c3ccc4c(c3F)CN(C3CCC(=O)NC3=O)C4=O)CC2)[nH]c2c(F)c(C#N)ccc12 (stereo not drawn) [Compound 122, 2-(4-(2-(2,6-dioxopiperidin-3-yl)-4-fluoro-1-oxoindolin-5-yl)piperidine-1-carbonyl)-7-fluoro-3-methyl-1H-indole-6-carbonitrile]
15 | 77.5% | 99.6% | O=C1CCC(N2Cc3cc(C4CCN(C(=O)c5[nH]c6ccccc6c5F)CC4)ccc3C2=O)C(=O)N1 (stereo not drawn) [Compound 37, 3-(5-(1-(3-fluoro-1H-indole-2-carbonyl)piperidin-4-yl)-1-oxoinsoindolin-2-yl)piperidine-2,6-dione]
16 | 43.5% | 66.5% | O=C1CCC(N2Cc3cc(C4CCN(C(=O)c5[nH]c6ccccc6c5CN5CCOCC5)CC4)ccc3C2=O)C(=O)N1 (stereo not drawn) [Compound 34, 3-(5-(1-(3-(morpholinomethyl)-1H-indole-2-carbonyl)piperidin-4-yl)-1-oxoinsoindolin-2-yl)piperidine-2,6-dione]
17 | 87.5% | 93.6% | O=C1CCC(N2Cc3cc(C=C4CCN(C(=O)c5c[nH]c6ccccc56)CC4)ccc3C2=O)C(=O)N1 (stereo not drawn) [Compound 25, 3-(5-((1-(1H-indole-3-carbonyl)piperidin-4-ylidene)methyl)-1-oxoinsoindolin-2-yl)piperidine-2,6-dione]
18 | 98.6% | 93.3% | O=C1CCC(N2Cc3cc(C4CCN(C(=O)c5cc6ccc(F)cc6[nH]5)CC4)ccc3C2=O)C(=O)N1 (stereo not drawn) [Compound 7, 3-(5-(1-(6-fluoro-1H-indole-2-carbonyl)piperidin-4-yl)-1-oxoinsoindolin-2-yl)piperidine-2,6-dione]
19 | 109% |  | Cc1c(C(=O)N2CC=C(c3ccc4c(c3)CN(C3CCC(=O)NC3=O)C4=O)C2)[nH]c2cc(Cl)ccc12 (stereo not drawn) [Compound 65, 3-(5-(1-(6-chloro-3-methyl-1H-indole-2-carbonyl)-2,5-dihydro-1H-pyrrol-3-yl)-1-oxoinsoindolin-2-yl)piperidine-2,6-dione]
20 | 27.8% | 59.2% | CC(=O)Nc1ccc2c(C)c(C(=O)N3CCC(c4ccc5c(c4)CN(C4CCC(=O)NC4=O)C5=O)CC3)[nH]c2c1 (stereo not drawn) [Compound 73, N-(2-(4-(2-(2,6-dioxopiperidin-3-yl)-1-oxoindolin-5-yl)piperidine-1-carbonyl)-3-methyl-1H-indol-6-yl)acetamide]
21 | 25.4% |  | CC1CC(c2ccc3c(c2)CN(C2CCC(=O)NC2=O)C3=O)CCN1C(=O)c1cc2ccc(Cl)cc2[nH]1 (stereo not drawn) [Compound 59, 3-(5-(1-(6-chloro-1H-indole-2-carbonyl)-2-methylpiperidin-4-yl)-1-oxoinsoindolin-2-yl)piperidine-2,6-dione]
22 | 78.7% | 86.7% | COc1c(C(=O)N2CCC(c3ccc4c(c3)CN(C3CCC(=O)NC3=O)C4=O)CC2)[nH]c2ccccc12 (stereo not drawn) [Compound 30, 3-(5-(1-(3-methoxy-1H-indole-2-carbonyl)piperidin-4-yl)-1-oxoinsoindolin-2-yl)piperidine-2,6-dione]
23 | 61.1% | 69.7% | Cc1c(C(=O)N2CCC(=Cc3ccc4c(c3)CN(C3CCC(=O)NC3=O)C4=O)CC2)[nH]c2cc(Cl)ccc12 (stereo not drawn) [Compound 44, 3-(5-((1-(6-chloro-3-methyl-1H-indole-2-carbonyl)piperidin-4-ylidene)methyl)-1-oxoinsoindolin-2-yl)piperidine-2,6-dione]
24 | 38.5% | 41.7% | O=C1CCC(N2Cc3cc(C4CCN(C(=O)c5cc6ccc(C(F)(F)F)cc6[nH]5)CC4)ccc3C2=O)C(=O)N1 (stereo not drawn) [Compound 41, 3-(1-oxo-5-(1-(6-(trifluoromethyl)-1H-indole-2-carbonyl)piperidin-4-yl)isoindolin-2-yl)piperidine-2,6-dione]
25 | 75.8% | 73.2% | Cc1c(C(=O)N2CCC(c3ccc4c(c3)CN(C3CCC(=O)NC3=O)C4=O)CC2)[nH]c2cc(NS(C)(=O)=O)ccc12 (stereo not drawn) [Compound 74, N-(2-(4-(2-(2,6-dioxopiperidin-3-yl)-1-oxoindolin-5-yl)piperidine-1-carbonyl)-3-methyl-1H-indol-6-yl) methanesulfonamide]
26 |  | 14.2% | COc1ccc2c(CN3CCOCC3)c(C(=O)N3CCC(c4ccc5c(c4)CN(C4CCC(=O)NC4=O)C5=O)CC3)[nH]c2c1 (stereo not drawn) [Compound 110, 3-(5-(1-(6-methoxy-3-(morpholinomethyl)-1H-indole-2-carbonyl)piperidin-4-yl)-1-oxoinsoindolin-2-yl)piperidine-2,6-dione]
27 | 67% | 64.5% | O=C1CCC(N2Cc3cc(C4CCN(C(=O)c5[nH]c6ccccc6c5Cl)CC4)ccc3C2=O)C(=O)N1 (stereo not drawn) [Compound 22, 3-(5-(1-(3-chloro-1H-indole-2-carbonyl)piperidin-4-yl)-1-oxoinsoindolin-2-yl)piperidine-2,6-dione]
28 | 56.2% | 58% | COc1ccc2cc(C(=O)Nc3ccc4c(c3)CN(C3CCC(=O)NC3=O)C4=O)ccc2c1 (stereo not drawn) [Comparative Substance 4, N-(2-(2,6-dioxopiperidin-3-yl)-1-oxoindolin-5-yl)-6-methoxy-2-naphthamide, reference compound]
